Results: US9920300B2, “Induction of germ cells from pluripotent cells” (The Board of Trustees of the Leland Stanford Junior …, priority 2009, dated 2018)

Key:
[1] = system: hESCs (H9) differentiating to germ cells; experiment: qPCR gene expression in hESCs differentiated with BMPs in the presence of PAHs; format: cell-based, human
Experimental: (§1) A federally approved hESC line (H9, XX) was maintained and differentiated as previously described (see methods of Kee, K., et al. (2006) Stem Cells & Differentiation 15: 831-837, the disclosure of which is incorporated herein). Briefly, adherent differentiation began upon the addition of differentiation media containing 20% FBS (Hyclone) and supplemented with Bone Morphogenetic Proteins (BMPs) -4, -7, and -8b (R&D) reconstituted in 4 mM HCl/0.1% BSA and used at 50 ng/ml. DMBA (Sigma), ANF (Sigma) and DMBA-DHD(MRI) were dissolved in DMSO at a 1:1000 dilution before adding to the media to the indicated final concentrations.
Total RNA was extracted using the RNeasy kit (Qiagen) and cDNA prepared with SuperScriptIII (Invitrogen) according to the manufacturer's protocols using 1 μg RNA. The cDNA was subjected to a pre-amplification using 1.25 μl out of 20 μl total cDNA, 1 μl Platinum Taq (Invitrogen), 5 μl CellsDirect 2× Reaction Buffer and 2.5 μl 0.2× Taqman (Applied Biosystem) probe mix. PCR cycle program for pre-amplification is: 95° C., 10 minutes; 95° C., 15 seconds and 60° C., 4 minutes for 14 cycles. Assays and samples are prepared according to the Fluidigm protocol and run on a 48×48 chip. BioMark (Fluidigm) program was used to obtain delta Ct value before imported into Excel file sheet to calculate delta-delta Ct value=2^(CtGene−CtHousekeeping genes). The delta-delta Ct value is then normalized to the control of each experiment to obtain the final normalized expression level. All delta-delta Ct values were calculated using four housekeeping genes (GAPDH, CTNNB1, ACTS, CENTRIN) except in experiment in FIG. 35, which only used GAPDH as housekeeping gene in a regular qPCR reaction in 7300 Real Time PCR System (Applied Biosystems).

[2] = system: VASA:GFP+ PGCs from hESCs; experiment: VASA:GFP reporter FACS of hESCs with DMBA-DHD and shAHR (Example 3); format: cell-based, human
Experimental: as §1
shRNA was used to target AHR by the BLOCK-IT™ Inducible H1 Lentiviral RNAi System (Invitrogen). Double stranded oligos were generated, ligated into the pENTR vector and transfected into 293FT cells for initial screening. After 24 hours, RNA was harvested using the RNeasy kit and cDNA generated using SuperScriptIII with 1 μg total RNA input. The destination lentiviral vector was generated by recombining the pENTR vector with the pLenti4/BLOCK-it-DEST vector via the Gateway technology according to the manufacturer's protocol. Lentiviral supernatant carrying the pLenti4/BLOCK-it-DEST-shAHR vector was generated by co-transfection with 10 μg of each vector with 10 μg Vsvg and 15 μg Δ8.9 into 293FT cells grow on T175 plates. Supernatant was harvested after three days and either used immediately for transduction of hESCs or frozen at −80° C. until further usage. hESCs prepared for transduction were plated to 50% confluency on matrigel coated plates. Polybrene was added to the lentivirus supernatant for a final concentration of 8 μg/ml. […]
Single cell suspensions were prepared by incubating differentiated hESCs in Collagenase Type IV (1 mg/ml) for ten minutes, followed by ten minutes in TrypLE (Invitrogen). […] Luminescence was measured after 1 hour of incubation at room temperature with Fluostar Optima (BMG).

[3] = system: VASA:GFP+ and VASA:GFP− cells; experiment: Caspase 3/7 apoptosis assay in FACS-sorted cells; format: cell-based, human; conditions: 1 μM DMBA-DHD
Experimental: Single cell suspensions were prepared by incubating differentiated hESCs in Collagenase Type IV (1 mg/ml) for ten minutes, followed by ten minutes in TrypLE (Invitrogen). Cell pellet was resuspended in 0.5 ml differentiated media and passed through a 40 μm strainer. Cell suspensions were then subjected to FACS analysis with BD FACSAria system (BD). Cells were sorted for either VASA:GFP+ or VASA:GFP−. 1000 cells of each group were collected in 100 μl PBS and mixed with 100 μl of Caspase-Glo 3/7 reagent according to manufacturer protocol (Promega). Luminescence was measured after 1 hour of incubation at room temperature with Fluostar Optima (BMG).

DAZ = experiment: shRNA silencing of DAZ2-V5 and DAZ1-4 in 293T/293FT cells (Western); format: cell-based, human; conditions: for Protein level of DAZ2-V5: cotransfected
Experimental: All shRNAs targeting human DAZL, DAZ and BOULE were constructed using the Block-iT inducible H1 lentiviral system (Invitrogen). All shRNAs were first introduced into pENTR/H1/TO vectors and transferred into pLenti4/BLOCK-iT-DEST destination vectors (see below for sequence information). When shRNA was tested in 293FT cells for its efficacy of silencing, transient transfection without selection was carried out and cell lysate was collected after 24 h. After specific shRNA was chosen, viral supernatant was prepared as described for pLVGV. Subsequently, the viral supernatant was used to transduce human ES cells on matrigel as described above, except with zeocin selection (2 μg/ml) for 3 days for stable integration of the shRNA vector into human ES cells. Overexpression vectors were constructed by inserting the EF1μ, promoter, and DAZL, DAZ2 or BOULE cDNA into the p2k7bias vectors, selected with blasticidin (2 μg ml^−1) in culture for 3 days to ensure stable integration and subjected for each differentiation experiment. shRNA sequences were:
cDNA clones of DAZ1-4 (NCBI accession numbers: DAZ1, BC11492; DAZ2, NM_020363; DAZ3, BC113005; DAZ4, BC047480) were obtained from ATCC, PCR amplified, cloned into pENTR-D-TOPO vector, and subsequently cloned into pLenti4/TO/V5-DEST (Invitrogen). […] Co-transfection of the overexpression vector and shDAZ4 at the ratio of 1:1 and 1:2 into 293FT cells was carried out and all the lysates were collected after 24 h and loaded equally onto 10% SDS-PAGE gel.

mouse fetal germ cells = mouse fetal germ cells incubated with PAHs; cited from earlier work
[4] = system: VASA-GFP+ population of human ES cells (H9, HSF1); experiment: VASA-GFP reporter FACS of differentiated human ES cells (Example 1); format: cell-based; conditions: XX line (H9), 14 days
Experimental: 2.5 kb of human VASA upstream of the first codon was cloned into pENTR 5′-TOPO. EGFP was fused 1 kb downstream of the last codon of human VASA, and cloned into pENTR/D-TOPO. Cloned plasmids were recombined (Suter, D. M. et al. (2006) Stem Cells 24, 615-623) to create pLVGV. Lentiviral supernatant was produced, human ES cells were transduced overnight on matrigel in conditioned medium and subsequently selected with geneticin ([…]) for 7 days. Selected human ES cells were differentiated for the times indicated and harvested by brief treatment with collagenase IV and then TrypLEExpress (Invitrogen). The cell suspension was prepared in differentiation medium for FACS with a MoFlow or BD cell sorter.
Four human ES cell lines were used in this study: HSF1 (XY), HSF6 (XX), H1 (XY) and H9 (XX). Undifferentiated cultures of human ES cells were maintained on irradiated MEFs as previously described in Kee, K. et al (2006) Stem Cells Dev. 15: 831-837. Briefly, all cultures were grown at 37° C. with 5% CO2 in knockout serum replacer (KSR) plus bFGF medium (knockout DMEM, supplemented with 20% knockout serum replacer, 1 mM L-glutamine, 0.1 mM nonessential amino acids, 0.1 mM 2-mercaptoethanol, and 4 ng ml^−1 recombinant human bFGF (bFGF, R&D systems)). […]

DAZL and VASA = experiment: Western blot of DAZL and VASA in human ES cells after silencing/overexpression; format: cell-based; conditions: human ES cells differentiated 14 days with BMPs
Experimental: (§2) To collect the adherently differentiated cells, cells were washed with 3 ml cold PBS without Ca^2+ and Mg^2+, then scraped from the plate in 1 ml PBS plus 2× protease inhibitors (Complete Mini, Roche) and transferred immediately to a 1.5-ml tube on ice. The PBS cell suspension was then spun at 5,000 r.p.m. in a microcentrifuge for 3 min and the supernatant was discarded. The cell pellet was resuspended with 200 ul RIPA buffer (50 mM Tris, 150 mM NaCl, 0.5% sodium deoxycholate, 1% NP-40, 0.1% SDS, pH 8) plus 2× protease inhibitors (Complete Mini, Roche). The cell pellet suspension was pipetted rigorously at least 10 times, then vortexed for 30 sec. The suspension was again spun down for 3 min at the same speed. The supernatant was measured for protein concentration and denatured at a 1:1 ratio with 2× Laemmli buffer at 95° C. for 5 min, then loaded onto either a 10% or 12% SDS-PAGE gel. The SDS-PAGE gels were run at 150 V for 1 h and transferred to a PVDF membrane for 1 h at 100 V in CAPS buffer (10 mM CAPS, 10% methanol, pH 11). Transferred blots were blocked in 5% non-fat milk for 1 h at room temperature. […]

DAZL = experiment: shRNA silencing of DAZL-V5 / DAZL:GFP cotransfected in 293T cells; format: cell-based, human
Experimental: as §2

Cc1c2ccccc2c(C)c2c3c(ccc12)C(O)C(O)C=C3 (centres unmarked) [DMBA-DHD, DMBA-3,4-dihydrodiol]
Potency relative to DMBA (decrease in germ cell specific gene expression) ([1]; 0.1 μM DMBA-DHD comparable to 1 μM DMBA, 1 μM DMBA-DHD more potent than 10 μM DMBA): at least one log | Expression of AFP and CDX2 ([1]; hESCs differentiated with BMPs): not reproducibly reduced | Expression of somatic markers KDR and NES ([1]; hESCs differentiated with BMPs): did not significantly alter | Increase of BAX expression ([1]; hESCs differentiated with BMPs, vs DMSO control): 20 fold | Number of PGCs out of 20,000 differentiated hESCs ([2]; hESCs carrying shLacZ, 1 μM DMBA-DHD, control 908): ~626 | Percentage of VASA:GFP+ PGCs ([2]; hESCs carrying shLacZ, 14 days BMP induction, 1 μM DMBA-DHD, untreated control 4.5%): 3.1% | Reduction in human PGCs ([2]; in the presence of DMBA-DHD): less than two-fold | Apoptosis activity (Caspase 3/7) ([3]; VASA:GFP+ cells): significantly increased | Apoptosis activity (Caspase 3/7) ([3]; VASA:GFP− cells): not in the VASA:GFP− cells

shDAZ5: shRNA 5′-GCATTTCCTGCTTATCCAAGT-3′, SEQ ID NO: 35
Protein level of DAZ2-V5 (DAZ): significantly decreased

O=c1cc(-c2ccccc2)oc2c1ccc1ccccc12 [ANF, α-napthoflavone]
Rescue of KDR and NES expression ([1]; ANF added with DMBA-DHD): no rescue | Expression of germ cell markers VASA, DAZL and PRDM1 ([1]; ANF added with DMBA-DHD, relative to DMBA-DHD addition alone): increased | BAX expression ([1]; ANF added with DMBA-DHD, relative to DMBA-DHD alone): decreased | Fetal germ cell toxicity of PAHs (mouse fetal germ cells): could be prevented

shDAZ3: shRNA 5′-GCCACGTCCTTTGGTAGTTAA-3′, SEQ ID NO: 33
Protein level of DAZ2-V5 (DAZ): significantly decreased

shDAZL4: shRNA 5′-GCAGAAGATAGTAGAATCACA-3′, SEQ ID NO: 27
VASA-GFP+ population [4]: reduced | Expression of DAZL and VASA (DAZL and VASA): significantly reduced | Silencing of DAZL:GFP fusion protein (DAZL): most effective silencer for DAZL

shDAZ4: shRNA 5′-GCATTTCCTGCTTATCCAAAT-3′, SEQ ID NO: 34
Silencing of DAZ1-4 proteins (DAZ; 293FT cells): all four DAZ proteins were silenced | Protein level of DAZ2-V5 (DAZ): significantly decreased

shDAZ1: shRNA 5′-GCAAATCCTGAGACTCCAAAC-3′, SEQ ID NO: 31
Protein level of DAZ2-V5 (DAZ): significantly decreased

shDAZL2: shRNA 5′-GCATATCCTACTTACCCAAAT-3′, SEQ ID NO: 25
Expression of DAZL and VASA (DAZL and VASA): significantly reduced | Silencing of DAZL:GFP fusion protein (DAZL): most effective
